Measured values taken from PubChem BioAssay AID2060510 (Molecular Pharmacology Branch, DTP, NCI, 2025).

Test system: 439559-082-T-J2-PDC spheroids viability
Assay: Anticancer human tumor 439559-082-T-J2-PDC patient-derived colon adenocarcinoma cell line growth inhibition [GQUAD]
Details: for IC50: curve of first compound; for viability, T/C: stronger effect = lower value
Source text: DNA G-quadruplex Stabilizer Agents in Combinations in Complex Spheroids
A high-throughput screen of multi-cell type tumor spheroids was designed to identify active combinations of DNA G-quadruplex stabilizer agents and targeted small molecules. Complex spheroids include a stromal component modeled by human endothelial cells (HUVEC) and fibroblasts modeled by human mesenchymal stem cells (MSCs). The concentration ranges selected for each drug and investigational agent were based upon clinically achievable concentrations if the clinical Cmax of the agent was known.
Compounds. The drugs and investigational agents: pidnarulex (CX-5461; NSC782164), APTO-253 (NSC789042), BRACO-19 (NSC847499), peposertib (NSC802822), ceralasertib (NSC780249), elimusertib (NSC800525), camonsertib (NSC841442), AZD-1390 (NSC803789), olaparib (NSC753686), talazoparib (NSC767125), ART-558 (NSC835418), sotorasib (NSC818433), MRTX-1133 (NSC836407), SN-38 (NSC673596), topotecan (NSC609699), etoposide (NSC141540), doxorubicin (NSC123127), gemcitabine (NSC613327), 5-fluorouracil (NSC19893), paclitaxel (NSC125973), vemurafenib (NSC761431), panobinostat (NSC761190), R-306465 (JNJ-16241199; NSC773264), adavosertib (NSC754352), TP-3654 (NSC805149), carboplatin (NSC241240), KSQ-4279 (NSC840948), and staurosporine (NSC755774) were obtained from the National Cancer Institute (NCI) Developmental Therapeutics Program Chemical Repository (34). The FDA-approved anticancer drug set is available from the NCI Developmental Therapeutics Program. […] The stock solutions were prepared in dimethyl sulfoxide (DMSO, Sigma-Aldrich, St. Louis, MO, cat. D2650) at 800-fold the tested concentration and stored at -70 degrees C prior to their use. All drugs and investigational agents were tested over a range starting from a high concentration at or near the clinical Cmax and decreasing in half-log increments. If the clinical Cmax for an agent had not been determined, the highest concentration tested was 10 microM.
2.3 Cell Culture. All cells were maintained in an incubator at 37 degrees C and 5% CO2 with 95% humidity. The PDC lines were cultured according to standard operating procedures established by the NCI PDMR. All PDCs were thawed and cultured in Matrigel-coated flasks prepared with a working solution of 1X Ham's F-12 nutrient mix, without supplementation (Invitrogen, cat. 11765054), 100 U/mL penicillin-streptomycin (Invitrogen, cat. 15140122), and 2.5% Matrigel (Corning Inc., cat. 354248) for the first three passages. The 857933-349-R-J2-PDC line was cultured in 6C/Colon 1B media, which includes advanced DMEM/F-12 (Thermo Fisher Scientific, cat. 12634028), 10 mM HEPES (Thermo Fisher Scientific, cat. 15630080), 1X GlutaMAX supplement (Thermo Fisher Scientific, cat. 35050061), 0.1 mg/mL primocin (InvivoGen, cat. ant-pm-2), 10% defined fetal bovine serum, heat inactivated (HyClone Laboratories Inc., cat. SH30070.03HI), 50% L-WRN conditioned media (ATCC, cat. CRL-3276), 1.25 mM N-Acetyl-L-cysteine (Sigma-Aldrich, cat. A9165), 10 mM nicotinamide (Sigma-Aldrich, cat. N0636), 1X B-27 supplement (Thermo Fisher Scientific, cat. 17504044), 1X N-2 supplement (Thermo Fisher Scientific, cat. 17502048), 10 microM Y-27632 dihydrochloride (Tocris Bioscience, cat. 1254), and 50 ng/mL human EGF recombinant protein (Thermo Fisher Scientific, cat. PHG0311). The 485176-168-R4-J1-PDC line was cultured in Panc media, which includes all 6C/Colon 1B media components plus 100 ng/mL human FGF-10 (Thermo Fisher Scientific, cat. 100-26), 500 nM SB-431542 (Selleckchem, cat. S1067), and gastrin (Tocris, cat. 3006).
[…]

[1] = second compound 0.0316 µM, first compound 0.0316 µM
[2] = second compound 0.0316 µM, first compound 0.316 µM
[3] = second compound 0.1 µM, first compound 0.0316 µM
[4] = second compound 0.1 µM, first compound 0.316 µM
[5] = second compound 0.316 µM, first compound 0.0316 µM
[6] = second compound 0.316 µM, first compound 0.316 µM
[7] = second compound 1 µM, first compound 0.0316 µM
[8] = second compound 1 µM, first compound 0.316 µM
[9] = second compound 3.16 µM, first compound 0.0316 µM
[10] = second compound 3.16 µM, first compound 0.316 µM
[11] = second compound 10 µM, first compound 0.0316 µM
[12] = second compound 10 µM, first compound 0.316 µM
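Also: spheroids exposed to the agents for 7 days before readout.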
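For viability, T/C in this document: percent of luminescence signal in DMSO vehicle wells taken as 100% viability.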

## CCc1c2c(nc3ccc(O)cc13)-c1cc3c(c(=O)n1C2)COC(=O)[C@]3(O)CC + CN(C)c1ccc(Nc2c3ccc(NC(=O)CCN4CCCC4)cc3nc3cc(NC(=O)CCN4CCCC4)ccc23)cc1
Second compound 0.0316 µM
  IC50: 163 nM
Second compound 0.1 µM
  IC50: 181 nM
Second compound 0.316 µM
  IC50: 207 nM
Second compound 1 µM
  IC50: 179 nM
Second compound 3.16 µM
  IC50: 196 nM
Second compound 10 µM
  IC50: 195 nM
Second compound 0.0316 µM, first compound 0.000999 µM
  viability, T/C: 99.7%
Second compound 0.0316 µM, first compound 0.00316 µM
  viability, T/C: 88.5%
Second compound 0.0316 µM, first compound 0.00999 µM
  viability, T/C: 72.7%
[1]
  viability, T/C: 70.1%
Second compound 0.0316 µM, first compound 0.0999 µM
  viability, T/C: 52.5%
[2]
  viability, T/C: 43.8%
Second compound 0.1 µM, first compound 0.000999 µM
  viability, T/C: 110%
Second compound 0.1 µM, first compound 0.00316 µM
  viability, T/C: 91%
Second compound 0.1 µM, first compound 0.00999 µM
  viability, T/C: 82.1%
[3]
  viability, T/C: 72.6%
Second compound 0.1 µM, first compound 0.0999 µM
  viability, T/C: 56.6%
[4]
  viability, T/C: 42.9%
Second compound 0.316 µM, first compound 0.000999 µM
  viability, T/C: 104%
Second compound 0.316 µM, first compound 0.00316 µM
  viability, T/C: 93.6%
Second compound 0.316 µM, first compound 0.00999 µM
  viability, T/C: 77.1%
[5]
  viability, T/C: 70.5%
Second compound 0.316 µM, first compound 0.0999 µM
  viability, T/C: 67.7%
[6]
  viability, T/C: 40.3%
Second compound 1 µM, first compound 0.000999 µM
  viability, T/C: 93.3%
Second compound 1 µM, first compound 0.00316 µM
  viability, T/C: 85.7%
Second compound 1 µM, first compound 0.00999 µM
  viability, T/C: 85.8%
[7]
  viability, T/C: 69.3%
Second compound 1 µM, first compound 0.0999 µM
  viability, T/C: 56.8%
[8]
  viability, T/C: 43.9%
Second compound 3.16 µM, first compound 0.000999 µM
  viability, T/C: 100%
Second compound 3.16 µM, first compound 0.00316 µM
  viability, T/C: 90%
Second compound 3.16 µM, first compound 0.00999 µM
  viability, T/C: 76.6%
[9]
  viability, T/C: 64.2%
Second compound 3.16 µM, first compound 0.0999 µM
  viability, T/C: 61.5%
[10]
  viability, T/C: 43.2%
Second compound 10 µM, first compound 0.000999 µM
  viability, T/C: 106%
Second compound 10 µM, first compound 0.00316 µM
  viability, T/C: 79%
Second compound 10 µM, first compound 0.00999 µM
  viability, T/C: 80.8%
[11]
  viability, T/C: 75.4%
Second compound 10 µM, first compound 0.0999 µM
  viability, T/C: 59.6%
[12]
  viability, T/C: 41.7%

## Cc1cccc(N(C)C(=O)C2C(O)CCN2c2nc(C)cc(C(F)(F)F)c2C#N)c1 (centres undefined) + CN(C)c1ccc(Nc2c3ccc(NC(=O)CCN4CCCC4)cc3nc3cc(NC(=O)CCN4CCCC4)ccc23)cc1
Second compound 0.0316 µM
  IC50: > 10000 nM
Second compound 0.1 µM
  IC50: > 10000 nM
Second compound 0.316 µM
  IC50: > 10000 nM
Second compound 1 µM
  IC50: > 10000 nM
Second compound 3.16 µM
  IC50: > 10000 nM
Second compound 10 µM
  IC50: > 10000 nM
[1]
  viability, T/C: 102%
Second compound 0.0316 µM, first compound 0.1 µM
  viability, T/C: 87.8%
[2]
  viability, T/C: 97.3%
Second compound 0.0316 µM, first compound 1 µM
  viability, T/C: 89.8%
Second compound 0.0316 µM, first compound 3.16 µM
  viability, T/C: 94.5%
Second compound 0.0316 µM, first compound 10 µM
  viability, T/C: 99.5%
[3]
  viability, T/C: 109%
Second compound 0.1 µM, first compound 0.1 µM
  viability, T/C: 100%
[4]
  viability, T/C: 94.6%
Second compound 0.1 µM, first compound 1 µM
  viability, T/C: 92.1%
Second compound 0.1 µM, first compound 3.16 µM
  viability, T/C: 95.5%
Second compound 0.1 µM, first compound 10 µM
  viability, T/C: 109%
[5]
  viability, T/C: 84.5%
Second compound 0.316 µM, first compound 0.1 µM
  viability, T/C: 98.7%
[6]
  viability, T/C: 101%
Second compound 0.316 µM, first compound 1 µM
  viability, T/C: 96.7%
Second compound 0.316 µM, first compound 3.16 µM
  viability, T/C: 95.2%
Second compound 0.316 µM, first compound 10 µM
  viability, T/C: 94.3%
[7]
  viability, T/C: 96.4%
Second compound 1 µM, first compound 0.1 µM
  viability, T/C: 102%
[8]
  viability, T/C: 97.5%
Second compound 1 µM, first compound 1 µM
  viability, T/C: 99.3%
Second compound 1 µM, first compound 3.16 µM
  viability, T/C: 96.6%
Second compound 1 µM, first compound 10 µM
  viability, T/C: 93.9%
[9]
  viability, T/C: 112%
Second compound 3.16 µM, first compound 0.1 µM
  viability, T/C: 93.5%
[10]
  viability, T/C: 101%
Second compound 3.16 µM, first compound 1 µM
  viability, T/C: 89.7%
Second compound 3.16 µM, first compound 3.16 µM
  viability, T/C: 107%
Second compound 3.16 µM, first compound 10 µM
  viability, T/C: 92.1%
[11]
  viability, T/C: 93.6%
Second compound 10 µM, first compound 0.1 µM
  viability, T/C: 87.1%
[12]
  viability, T/C: 100%
Second compound 10 µM, first compound 1 µM
  viability, T/C: 102%
Second compound 10 µM, first compound 3.16 µM
  viability, T/C: 94%
Second compound 10 µM, first compound 10 µM
  viability, T/C: 91.8%
